Source: patent US12006318B2, “Crystalline forms of C-C chemokine receptor type 4 antagonist and uses thereof” (RAPT THERAPEUTICS, INC., priority 2019, dated 2024)
Read-outs that look alike come from different tables or passages of the source.

Experiments:
[1] = Solubility (kinetic solubility) of salt forms at pH 2; type: physicochemical; settings: for solubility: in pH 2 water
[2] = Bioavailability of salt forms in rats; type: in vivo; settings: for bioavailability: in rats
[3] = Hygroscopicity of the crystalline salt; type: physicochemical
[4] = Storage stability at room temperature; type: physicochemical; settings: after 36 months of storage at room temperature

Row | solubility (in words) ([1]; embodiment statement) | solubility ([1]; water at pH 2, aqueous buffer) | bioavailability (in words) ([2]; embodiment statement) | bioavailability ([2]; rat, in vivo, read-out: bioavailability) | hygroscopicity [3] | stability on storage [4] | stability on storage ([4]; listed as benzenesulfonic acid salt) | kinetic solubility as fraction of that of the HCl salt ([1]; at pH 2, relative to HCl salt) | solubility [1] | solubility compared with the amorphous HCl salt ([1]; relative to amorphous HCl salt) | bioavailability [2] | Compound
1 | good solubility | 411 µM | good bioavailability | 34% | low hygroscopicity | outstanding stability | superior stability |  |  |  |  | C[C@H](c1ccc(Cl)cc1Cl)n1nc(C(F)(F)F)c2ncc(N3CC([C@H]4CCCN(CCO)C4)C3)nc21 [crystalline form A, 2-((R)-3-(1-(1-((R)-1-(2,4-Dichlorophenyl)ethyl)-3-(trifluoromethyl)-1H-pyrazolo[3,4-b]pyrazin-6-yl)azetidin-3-yl)piperidin-1-yl)ethan-1-ol benzene sulfonate]
2 |  |  |  |  |  |  |  | ⅕ | 190 µM | less soluble | 22% | C[C@H](c1ccc(Cl)cc1Cl)n1nc(C(F)(F)F)c2ncc(N3CC([C@H]4CCCN(CCO)C4)C3)nc21.Cc1ccc(S(=O)(=O)O)cc1 [para-toluenesulfonic acid salt]
